From ChEMBL document CHEMBL4507319 (2021)

Key:
[1] = target: Muscarinic acetylcholine receptor M2 (Homo sapiens) (UniProt P08172); conditions: Compound concentration 10.0 uM
[2] = target: Insulin receptor-related protein (Homo sapiens) (UniProt P14616); conditions: Compound concentration 1000.0 nM
[3] = target: Mitogen-activated protein kinase 7 (Homo sapiens) (UniProt Q13164); conditions: Compound concentration 1000.0 nM
[4] = target: T1, Ephrin type-B receptor 4 (Homo sapiens) (UniProt P54760); conditions: Compound concentration 1000.0 nM
T1 sequence (whole entry): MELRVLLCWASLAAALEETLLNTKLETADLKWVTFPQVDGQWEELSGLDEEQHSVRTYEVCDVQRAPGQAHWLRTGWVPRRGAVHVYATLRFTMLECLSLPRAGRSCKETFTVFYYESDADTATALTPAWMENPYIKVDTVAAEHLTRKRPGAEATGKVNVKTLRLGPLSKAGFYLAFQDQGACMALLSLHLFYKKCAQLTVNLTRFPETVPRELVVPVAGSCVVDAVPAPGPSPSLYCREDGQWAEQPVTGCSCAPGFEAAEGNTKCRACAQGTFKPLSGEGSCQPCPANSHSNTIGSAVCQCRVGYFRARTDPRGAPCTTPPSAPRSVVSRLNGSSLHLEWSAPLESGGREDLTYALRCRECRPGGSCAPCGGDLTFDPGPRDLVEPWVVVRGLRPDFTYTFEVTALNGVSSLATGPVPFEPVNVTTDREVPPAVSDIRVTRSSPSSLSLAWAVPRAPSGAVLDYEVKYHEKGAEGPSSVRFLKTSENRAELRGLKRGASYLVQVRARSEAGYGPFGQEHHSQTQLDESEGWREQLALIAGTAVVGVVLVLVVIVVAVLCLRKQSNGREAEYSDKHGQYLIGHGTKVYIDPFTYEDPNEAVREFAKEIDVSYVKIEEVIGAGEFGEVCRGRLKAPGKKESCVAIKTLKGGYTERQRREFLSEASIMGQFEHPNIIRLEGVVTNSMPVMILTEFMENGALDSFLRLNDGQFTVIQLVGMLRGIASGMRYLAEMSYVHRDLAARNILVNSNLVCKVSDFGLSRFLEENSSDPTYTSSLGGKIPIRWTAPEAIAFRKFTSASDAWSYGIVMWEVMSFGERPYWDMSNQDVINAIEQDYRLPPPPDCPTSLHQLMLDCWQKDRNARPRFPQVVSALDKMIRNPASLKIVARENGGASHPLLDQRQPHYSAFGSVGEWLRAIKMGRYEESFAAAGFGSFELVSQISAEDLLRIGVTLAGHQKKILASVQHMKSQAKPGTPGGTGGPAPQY

[5] = target: T2, Serine/threonine-protein kinase D2 (Homo sapiens) (UniProt Q9BZL6); conditions: Compound concentration 1000.0 nM
T2 sequence (whole entry): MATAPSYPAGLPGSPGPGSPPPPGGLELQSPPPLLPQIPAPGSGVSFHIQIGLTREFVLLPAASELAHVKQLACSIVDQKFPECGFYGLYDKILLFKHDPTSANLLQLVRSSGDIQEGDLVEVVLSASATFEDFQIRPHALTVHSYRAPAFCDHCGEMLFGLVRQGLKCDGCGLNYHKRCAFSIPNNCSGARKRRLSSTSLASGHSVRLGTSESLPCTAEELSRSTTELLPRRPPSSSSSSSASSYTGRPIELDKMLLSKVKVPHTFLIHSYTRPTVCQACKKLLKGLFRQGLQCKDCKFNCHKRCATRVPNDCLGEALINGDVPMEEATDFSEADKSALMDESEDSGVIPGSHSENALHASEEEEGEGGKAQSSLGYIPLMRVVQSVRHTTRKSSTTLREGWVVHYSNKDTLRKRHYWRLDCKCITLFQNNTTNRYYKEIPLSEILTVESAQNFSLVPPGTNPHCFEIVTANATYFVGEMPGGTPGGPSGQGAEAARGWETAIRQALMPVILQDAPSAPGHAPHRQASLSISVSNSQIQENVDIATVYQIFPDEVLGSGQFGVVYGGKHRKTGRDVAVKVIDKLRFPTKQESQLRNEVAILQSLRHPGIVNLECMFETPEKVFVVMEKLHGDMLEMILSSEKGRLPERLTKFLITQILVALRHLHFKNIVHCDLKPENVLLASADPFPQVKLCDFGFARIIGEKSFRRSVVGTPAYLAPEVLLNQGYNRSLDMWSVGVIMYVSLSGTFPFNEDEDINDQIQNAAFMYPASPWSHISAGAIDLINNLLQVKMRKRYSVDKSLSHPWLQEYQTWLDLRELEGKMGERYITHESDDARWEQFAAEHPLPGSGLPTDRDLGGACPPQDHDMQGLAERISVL

[6] = target: Death-associated protein kinase 3 (Homo sapiens) (UniProt O43293); conditions: Compound concentration 1000.0 nM
Chain of Death-associated protein kinase 3 (Homo sapiens) (O43293 whole entry, looked up): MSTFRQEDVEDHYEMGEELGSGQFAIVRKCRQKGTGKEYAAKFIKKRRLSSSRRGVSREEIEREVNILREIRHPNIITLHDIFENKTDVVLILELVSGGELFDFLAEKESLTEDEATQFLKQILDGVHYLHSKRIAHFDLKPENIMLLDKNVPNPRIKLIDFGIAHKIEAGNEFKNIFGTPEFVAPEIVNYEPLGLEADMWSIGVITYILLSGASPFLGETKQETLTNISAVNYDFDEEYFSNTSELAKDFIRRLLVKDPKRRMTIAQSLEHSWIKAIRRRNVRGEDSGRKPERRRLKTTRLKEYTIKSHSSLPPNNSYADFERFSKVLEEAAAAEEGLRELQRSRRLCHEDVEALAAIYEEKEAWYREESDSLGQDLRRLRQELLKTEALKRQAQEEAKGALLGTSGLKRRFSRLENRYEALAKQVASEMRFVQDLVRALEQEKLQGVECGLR

[7] = target: T3, Serine/threonine-protein kinase Chk1 (Homo sapiens) (UniProt O14757); conditions: Compound concentration 1000.0 nM
T3 sequence (whole entry): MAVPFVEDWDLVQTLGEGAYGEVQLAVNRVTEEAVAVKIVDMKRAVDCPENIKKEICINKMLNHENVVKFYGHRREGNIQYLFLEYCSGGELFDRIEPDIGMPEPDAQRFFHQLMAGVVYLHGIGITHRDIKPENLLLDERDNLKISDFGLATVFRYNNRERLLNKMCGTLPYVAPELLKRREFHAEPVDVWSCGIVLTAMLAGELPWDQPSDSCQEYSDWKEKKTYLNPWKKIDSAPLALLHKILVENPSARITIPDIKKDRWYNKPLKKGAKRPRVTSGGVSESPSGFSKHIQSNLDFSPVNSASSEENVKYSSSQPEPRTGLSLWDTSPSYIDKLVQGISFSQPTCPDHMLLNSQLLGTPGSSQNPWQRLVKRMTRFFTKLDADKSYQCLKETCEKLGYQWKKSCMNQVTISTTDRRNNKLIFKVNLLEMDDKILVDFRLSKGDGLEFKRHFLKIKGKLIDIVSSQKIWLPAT

[8] = target: Serine/threonine-protein kinase Nek5 (Homo sapiens) (UniProt Q6P3R8); conditions: Compound concentration 1000.0 nM
Chain of Serine/threonine-protein kinase Nek5 (Homo sapiens) (Q6P3R8 whole entry): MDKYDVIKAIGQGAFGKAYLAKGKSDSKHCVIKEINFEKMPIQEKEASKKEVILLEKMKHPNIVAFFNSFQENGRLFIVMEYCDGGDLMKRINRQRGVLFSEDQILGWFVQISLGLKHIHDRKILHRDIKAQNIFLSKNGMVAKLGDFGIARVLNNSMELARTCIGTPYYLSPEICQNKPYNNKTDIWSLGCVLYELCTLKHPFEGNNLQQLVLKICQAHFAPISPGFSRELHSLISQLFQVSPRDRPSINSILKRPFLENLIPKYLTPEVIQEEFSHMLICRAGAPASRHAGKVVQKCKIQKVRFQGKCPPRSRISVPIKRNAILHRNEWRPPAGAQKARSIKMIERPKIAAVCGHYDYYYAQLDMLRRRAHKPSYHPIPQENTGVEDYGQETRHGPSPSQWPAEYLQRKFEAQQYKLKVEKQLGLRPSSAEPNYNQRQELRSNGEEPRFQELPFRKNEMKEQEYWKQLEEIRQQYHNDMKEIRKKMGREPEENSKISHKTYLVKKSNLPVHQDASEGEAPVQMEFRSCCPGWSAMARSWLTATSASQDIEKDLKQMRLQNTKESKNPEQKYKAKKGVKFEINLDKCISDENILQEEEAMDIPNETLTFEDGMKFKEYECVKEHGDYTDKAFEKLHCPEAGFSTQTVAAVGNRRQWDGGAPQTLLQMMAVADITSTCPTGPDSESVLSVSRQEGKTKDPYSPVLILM

Chain of Insulin receptor-related protein (Homo sapiens) (P14616 27-742 limits assumed): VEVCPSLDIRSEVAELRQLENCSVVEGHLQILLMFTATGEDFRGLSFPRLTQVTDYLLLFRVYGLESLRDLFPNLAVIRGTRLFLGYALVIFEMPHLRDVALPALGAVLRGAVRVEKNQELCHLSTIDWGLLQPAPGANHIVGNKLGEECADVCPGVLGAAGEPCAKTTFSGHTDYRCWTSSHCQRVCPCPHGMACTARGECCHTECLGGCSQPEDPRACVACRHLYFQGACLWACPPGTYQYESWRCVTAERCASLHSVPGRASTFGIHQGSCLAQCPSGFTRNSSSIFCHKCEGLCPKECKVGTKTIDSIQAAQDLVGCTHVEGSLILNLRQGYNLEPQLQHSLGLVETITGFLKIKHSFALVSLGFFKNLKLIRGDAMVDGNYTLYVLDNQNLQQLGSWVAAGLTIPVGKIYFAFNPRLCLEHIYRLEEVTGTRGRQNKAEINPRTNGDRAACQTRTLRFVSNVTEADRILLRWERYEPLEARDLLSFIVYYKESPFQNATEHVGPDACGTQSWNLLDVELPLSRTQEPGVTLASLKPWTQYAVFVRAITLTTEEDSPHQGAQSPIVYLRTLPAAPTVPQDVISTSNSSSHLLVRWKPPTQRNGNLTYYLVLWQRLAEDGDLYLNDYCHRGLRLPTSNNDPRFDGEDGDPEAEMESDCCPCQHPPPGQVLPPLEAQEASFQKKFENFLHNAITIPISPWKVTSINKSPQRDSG
Chain of Insulin receptor-related protein (Homo sapiens) (P14616 747-1297 limits assumed): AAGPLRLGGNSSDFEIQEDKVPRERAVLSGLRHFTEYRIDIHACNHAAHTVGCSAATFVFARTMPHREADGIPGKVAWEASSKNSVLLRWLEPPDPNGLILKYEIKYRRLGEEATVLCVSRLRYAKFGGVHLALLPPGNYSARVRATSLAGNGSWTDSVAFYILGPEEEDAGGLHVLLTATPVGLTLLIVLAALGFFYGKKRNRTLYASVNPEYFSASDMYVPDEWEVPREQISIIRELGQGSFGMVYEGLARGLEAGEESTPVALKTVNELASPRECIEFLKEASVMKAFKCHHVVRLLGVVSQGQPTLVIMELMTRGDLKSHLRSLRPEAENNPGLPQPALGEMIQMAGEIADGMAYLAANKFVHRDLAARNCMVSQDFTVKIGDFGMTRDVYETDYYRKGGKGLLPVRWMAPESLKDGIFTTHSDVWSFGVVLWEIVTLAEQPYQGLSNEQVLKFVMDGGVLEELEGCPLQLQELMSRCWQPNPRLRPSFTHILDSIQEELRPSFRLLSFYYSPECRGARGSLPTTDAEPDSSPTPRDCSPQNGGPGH
Chain of Muscarinic acetylcholine receptor M2 (Homo sapiens) (P08172 whole entry): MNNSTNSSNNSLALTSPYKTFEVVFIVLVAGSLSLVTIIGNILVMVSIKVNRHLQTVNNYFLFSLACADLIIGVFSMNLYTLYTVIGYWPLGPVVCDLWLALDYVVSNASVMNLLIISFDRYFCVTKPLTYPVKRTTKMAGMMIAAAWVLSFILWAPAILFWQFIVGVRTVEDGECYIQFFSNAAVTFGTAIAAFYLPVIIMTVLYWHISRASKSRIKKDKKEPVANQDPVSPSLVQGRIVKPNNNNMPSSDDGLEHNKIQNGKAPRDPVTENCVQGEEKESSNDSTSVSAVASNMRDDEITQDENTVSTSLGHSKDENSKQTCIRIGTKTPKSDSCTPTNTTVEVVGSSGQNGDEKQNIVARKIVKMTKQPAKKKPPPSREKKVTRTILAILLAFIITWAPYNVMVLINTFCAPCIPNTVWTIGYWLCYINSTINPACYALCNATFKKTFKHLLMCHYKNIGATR
Chain of Mitogen-activated protein kinase 7 (Homo sapiens) (Q13164 2-816 limits assumed): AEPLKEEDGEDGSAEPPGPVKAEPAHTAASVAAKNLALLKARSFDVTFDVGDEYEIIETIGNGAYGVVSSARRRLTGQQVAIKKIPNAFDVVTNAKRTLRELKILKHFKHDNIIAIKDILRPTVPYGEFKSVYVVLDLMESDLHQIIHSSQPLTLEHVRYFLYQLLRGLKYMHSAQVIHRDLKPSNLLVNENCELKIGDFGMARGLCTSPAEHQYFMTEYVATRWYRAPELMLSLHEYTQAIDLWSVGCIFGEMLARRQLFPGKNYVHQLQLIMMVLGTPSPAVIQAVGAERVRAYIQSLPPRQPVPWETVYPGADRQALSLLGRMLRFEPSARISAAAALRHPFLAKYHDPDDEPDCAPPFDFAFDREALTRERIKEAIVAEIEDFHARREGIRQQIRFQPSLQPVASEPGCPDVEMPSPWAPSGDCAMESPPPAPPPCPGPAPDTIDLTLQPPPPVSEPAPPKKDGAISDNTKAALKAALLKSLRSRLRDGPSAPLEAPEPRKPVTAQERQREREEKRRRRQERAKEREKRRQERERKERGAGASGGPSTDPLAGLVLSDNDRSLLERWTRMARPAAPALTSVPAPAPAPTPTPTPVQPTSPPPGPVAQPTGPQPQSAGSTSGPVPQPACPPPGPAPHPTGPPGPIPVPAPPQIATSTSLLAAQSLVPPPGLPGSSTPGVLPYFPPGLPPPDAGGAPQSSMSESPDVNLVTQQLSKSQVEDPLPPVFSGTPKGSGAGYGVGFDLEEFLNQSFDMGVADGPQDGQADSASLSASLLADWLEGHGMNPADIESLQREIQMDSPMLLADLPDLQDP

CCc1ccccc1C(=O)Nc1n[nH]c2c(C)c(F)c(C3C(C#N)=C(C)N(C)C(C)=C3C#N)cc12 [BAY-3827]
inactive: inhibition [1] 5.1% | residual activity [2] 99% | residual activity [3] 86% | residual activity [4] 51% | residual activity [5] 87% | residual activity [6] 71% | residual activity [7] 91% | residual activity [8] 100%

CC1=C(C#N)C(c2ccc3c(c2)c(NC(=O)c2ccccc2C)nn3C)C(C#N)=C(C)N1 [BAY-974]
inactive: inhibition [1] -2.08% | residual activity [2] 100% | residual activity [3] 100% | residual activity [4] 97% | residual activity [5] 95% | residual activity [6] 88% | residual activity [7] 81% | residual activity [8] 100%
